The test system of series [1] is Mus musculus. Nature of the series: Antinociceptive activity in Swiss mouse assessed as inhibition of capsaicin-induced nociception at 100 mg/kg, po administered 1 hr followed by capsaicin challenge measured for 5 mins relative to vehicle-treated control. Type of series: functional.
Series [2] relates to Mus musculus. Kind of series: Antinociceptive activity in Swiss mouse assessed as inhibition of CFA-induced mechanical allodynia at 100 mg/kg, po measured over 6 hrs. Type of series: functional, organism-based.
The test system of series [3] is Mus musculus. Nature of the series: Antinociceptive activity in Swiss mouse assessed as inhibition of CFA-induced mechanical allodynia at 100 mg/kg, po after 2 hrs relative to vehicle-treated control. It counts as functional.
Series [4] relates to Mus musculus. Nature of the series: Toxicity in Swiss mouse assessed as effect on spontaneous locomotor activity at 100 mg/kg, po after 1 hr by open field test. It counts as organism-based. To be noted: in vivo.
For series [5], the system named is Mus musculus. Nature of the series: Antinociceptive activity in Swiss mouse assessed as inhibition of CFA-induced mechanical allodynia at 300 mg/kg, po after 2 hrs relative to vehicle-treated control. It counts as functional.
Series [6] has as its system Mus musculus. Nature of the series: Antinociceptive activity in po dosed Swiss mouse assessed as inhibition of CFA-induced mechanical allodynia after 2 hrs. To be noted: read-out: ID50 (the source's name). It counts as functional.
The subject of series [7] is Mus musculus. Kind of series: Toxicity in Swiss mouse assessed as effect on forced locomotor activity at 100 mg/kg, po after 1 hr by rotarod test. It counts as organism-based. To be noted: in vivo. Background: In the rotarod test animals must keep their balance on a rotating rod.
The subject of series [8] is Mus musculus. Nature of the series: Antinociceptive activity in Swiss mouse assessed as inhibition of CFA-induced mechanical allodynia at 100 mg/kg, po measured over 4 hrs. Type of series: functional, organism-based.

Activity calls are given as the source filed them. The rule behind the calls is not given here. Where only a bound is given, the exact number is not on record here.

Turning to `Nc1nc2c(c(C(F)(F)F)n1)C1(CCCCC1)Oc1ccccc1-2`, the inhibition entry in the series with Mus musculus [1] is “Active”.

For `FC(F)(F)c1nc(-c2ccccc2)nc2c1C1(CCCCC1)Oc1ccccc1-2`, the inhibition result with Mus musculus [1] is “Active”.

On to `FC(F)(F)c1nc(-c2ccccc2)nc2c1C1(CCCCCC1)Oc1ccccc1-2`, for which, in the series on Mus musculus [1], the inhibition result is “Active”.

As to `Nc1nc2c(c(C(F)(F)F)n1)C1(CCCC1)Oc1ccccc1-2`, the inhibition entry with Mus musculus [1] is “Active”.

With `Nc1nc2c(c(C(F)(F)F)n1)C1(CCCCCC1)Oc1ccccc1-2`, the inhibition entry in the series on Mus musculus [1] was “Active”.

In the case of `FC(F)(F)c1nc(-n2cccc2)nc2c1C1(CCCCCC1)Oc1ccccc1-2`, the inhibition entry in the series on Mus musculus [1] was “Active”.

For `FC(F)(F)c1nc(-n2cccc2)nc2c1C1(CCCCC1)Oc1ccccc1-2`, the inhibition entry with Mus musculus [2] was “Active”. The results for the Imax in the series on Mus musculus [1] and in the series on Mus musculus [5] were 83% and 66%, respectively. Moreover, in the series with Mus musculus [3], the inhibition in vivo (commonly how much of the control response was suppressed) at 100 mg/kg was not above 68%. The Activity entry in the series on Mus musculus [4] and in the series with Mus musculus [7] was “Non-Toxic” in each case. Moreover, in the series with Mus musculus [6], the ED50 came to 422 mg/kg.

For `CC(C(=O)O)c1cccc(C(=O)c2ccccc2)c1` (stereo not given) [KETOPROFEN], the inhibition in vivo at 100 mg/kg in the series with Mus musculus [1] (Mus musculus, Swiss, po) was 80%; in the series on Mus musculus [3], not above 65%. Moreover, the inhibition entry in the series on Mus musculus [8] is “Active”. Moreover, in the series on Mus musculus [5], the Imax is listed as 75%. In the series on Mus musculus [6], the ED50 was determined as 169 mg/kg.

Consider `FC(F)(F)c1nc(-c2ccccc2)nc2c1C1(CCCC1)Oc1ccccc1-2`, for which the inhibition entry in the series on Mus musculus [1] is “Active”.

For `FC(F)(F)c1nc(-n2cccc2)nc2c1C1(CCCC1)Oc1ccccc1-2`, in the series with Mus musculus [1], the inhibition entry was “Active”.

The values above are taken from ChEMBL document CHEMBL4004882, “Synthesis of novel trifluoromethyl-substituted spiro-[chromeno[4,3-d]pyrimidine-5,1'-cycloalkanes], and evaluation of their analgesic effects in a mouse pain model” (Bioorg Med Chem Lett, 2017).
